Measured values reported in ChEMBL document CHEMBL1671776, “Convergent evolution-guided design of antimicrobial peptides derived from influenza A virus hemagglutinin” (J Med Chem, 2011).
Active and inactive are the calls of the source. No cut-off for these calls is given here.

Legend:
Shewanella oneidensis = assay: Antimicrobial activity against Shewanella oneidensis assessed as lethal concentration; type: functional
Pseudomonas aeruginosa = assay: Antimicrobial activity against Pseudomonas aeruginosa assessed as lethal concentration; type: functional
Geotrichum candidum = assay: Antifungal activity against Geotrichum candidum assessed as lethal concentration; type: functional
Salmonella typhimurium = assay: Antimicrobial activity against Salmonella Typhimurium assessed as lethal concentration; type: functional, Salmonella enterica subsp. enterica serovar Typhimurium
Klebsiella sp. = assay: Antimicrobial activity against Klebsiella sp. F51-1-2 assessed as lethal concentration; type: functional
Saccharomyces cerevisiae = assay: Antimicrobial activity against Saccharomyces cerevisiae assessed as lethal concentration; type: functional
[1] = tested on: Agrobacterium tumefaciens; assay: Antimicrobial activity against Agrobacterium tumefaciens assessed as lethal concentration; type: functional
Pseudomonas putida = assay: Antimicrobial activity against Pseudomonas putida assessed as lethal concentration; type: functional
Serratia marcescens = assay: Antimicrobial activity against Serratia marcescens assessed as lethal concentration; type: functional
Stenotrophomonas [2] = assay: Antimicrobial activity against Stenotrophomonas LZ-1 assessed as lethal concentration; type: functional
Priestia megaterium = assay: Antimicrobial activity against Bacillus megaterium assessed as lethal concentration; type: functional
Bacillus sp. [3] = assay: Antimicrobial activity against Bacillus sp. DM-1 assessed as lethal concentration; type: functional
Stenotrophomonas [4] = assay: Antimicrobial activity against Stenotrophomonas YC-1 assessed as lethal concentration; type: functional
Micrococcus luteus = assay: Antimicrobial activity against Micrococcus luteus assessed as lethal concentration; type: functional
[5] = Cytotoxicity against mouse erythrocyte assessed as hemolysis at 50 uM; type: cell-based; settings: erythrocytes, read-out: Activity
Bacillus sp. [6] = assay: Induction of membrane disruption in Bacillus sp. DM-1 at 10 uM after 30 mins using propidium iodide; type: functional, organism-based
[7] = Salmonella enterica subsp. enterica serovar Typhimurium

Substance | Activity (Shewanella oneidensis) | Activity (Pseudomonas aeruginosa) | Activity (Geotrichum candidum) | Activity (Salmonella typhimurium) [µM] | Activity (Klebsiella sp.) | Activity (Saccharomyces cerevisiae) | Activity [1] | Activity (Pseudomonas putida) | Activity (Serratia marcescens) | Activity (Stenotrophomonas [2]) | Activity (Priestia megaterium) | Activity (Bacillus sp. [3]) [µM] | Activity (Stenotrophomonas [4]) | Activity (Micrococcus luteus) | hemolysis at 50 µM [5] [%] | Activity (Salmonella typhimurium; [7]) | Activity (Bacillus sp. [6])
H-IFGAIAGFIKNIW-NH2 | 76.98 µM | 31.55 µM | 5.36 µM | >100 | 23.81 µM | 28.29 µM | 20.79 µM | 9.78 µM | 19.25 µM | >100 µM | 14.1 µM | 2.16 | 76.98 µM | 5.95 µM | 24.1 |  | 
H-IFGAIAGFIKNIW-OH | inactive | inactive | inactive |  | inactive | inactive | inactive | inactive | inactive | inactive | inactive | 49.93 | inactive | inactive |  | inactive | 
H-IFGAIAGFIKNGW-NH2 | inactive | inactive | inactive |  | >100 µM | 83.26 µM | inactive | inactive | >100 µM | inactive | inactive | 5.36 | inactive | 14.1 µM |  | inactive | 
H-IFGAIAGLLKNIF-NH2 [Meucin-13] | 6.2 µM | inactive | >50 µM | >50 |  | 18.3 µM | 11.8 µM |  | inactive |  | 0.25 µM | 2 | 6.2 µM | 2.9 µM | 64.7 |  | Active
H-IFGAIAGFIKNGW-OH | inactive | inactive | inactive |  | inactive | inactive | inactive | inactive | inactive | inactive | inactive | 49.93 | inactive | inactive |  | inactive | 
